According to PubChem BioAssay AID493002 (Sanford-Burnham Center for Chemical Genomics, 2010):
Activity calls are given as the source filed them. How the calls were made is not given here.

System: S. cerevisiae tim23-1 mutant growth, luminescence
Test: tim23-1 mutant yeast growth inhibitors, dose response, luminescence, uHTS hits (AID 493002);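 further: yeast grown roughly 22 hours at 25 °C before the luminescence read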

| Compound | IC50 |
| --- | --- |
| CCOC(=O)c1ccc(NC(=O)CSc2nc(=O)n3cccc(C)c3n2)cc1 | 13 µM |
| Cc1nc(-c2ccc(NC(=O)c3ccccc3)cc2)cs1 | 13 µM |
| CC1(C)OC(=O)C(=Cc2ccc[nH]2)C(=O)O1 | 8.73 µM |
| COc1ccc(-c2cccc(NC(=O)c3cccs3)c2)nn1 | 14.2 µM |
| Cc1ccc(O)c(N=Cc2cc(Cc3ccccc3)cc([N+](=O)[O-])c2O)c1 | 10.6 µM |
| O=C(Nc1ccc2nc(-c3ccc(Br)o3)[nH]c2c1)c1cccs1 | 1.35 µM |
| O=C(N/N=C/c1ccco1)c1cc2ccccc2o1 | 8.47 µM |
| O=C(/C=C/c1ccccc1)NCCc1c[nH]c2ccccc12 | 15 µM |
| CCOC(=O)/C(=C/c1ccc(OC(=O)c2ccncc2)cc1)C(C)=O | 11 µM |
| Cc1cc(C(=O)CCl)c(C)n1CCc1ccc(Cl)cc1 | 3.7 µM |
| Cc1ccc2c(c1)C(=O)C(=O)N2c1ccc(Cl)cc1 | 11.7 µM |
| O=C(Nc1ccc(-c2cn3ccccc3n2)cc1)c1ccco1 | 6.01 µM |
| Cc1ccc(Nc2nc(-c3cccnc3)nc3ccccc23)cc1 | 5.21 µM |
| Cc1cc(C(=O)Nc2ccc(Br)cn2)sc1C | 21.1 µM |
| c1ccc2[nH]c(CSc3nc4ccccc4o3)nc2c1 | 12.3 µM |
| O=[N+]([O-])c1cc(O)c2ncccc2c1 | 11.4 µM |
| O=C(Nc1ccccc1N(C(=O)c1ccco1)S(=O)(=O)c1cccs1)c1ccco1 | 9.78 µM |
| COc1cccc(CNn2c(-c3cccc(C)c3)nc3ccccc3c2=O)c1O | 10.1 µM |
| COc1ccc2c(C(=O)CCl)c[nH]c2c1 | 22.5 µM |
| CCOC(=O)c1c(C)oc2c(F)c(F)c(F)c(F)c2c1=O | 13.1 µM |
| COc1cccc(Nc2nc(-c3ccccc3)nc3ccccc23)c1 | 5.63 µM |
| O=C(N/N=C/C(Br)=C/c1ccccc1)c1ccccc1F | 12.3 µM |

| Compound | IC50 |
| --- | --- |
| O=C1NN=C(c2ccc(Cl)cc2)CC1c1cccc(Br)c1 (stereo not drawn) | > 100 µM (inactive) |
| O=C1Nc2ccccc2/C1=C/c1ccccc1Cl | 7.21 µM |
| C#CCOCCOCCOCCNc1nc(N2CCN(C(=O)CCCCCCCCCCNC(=O)[C@H](CCCCN)n3cc(CCO)nn3)CC2)nc(N2CCN(C(=O)CCCCCCCCCCNC(=O)[C@H](CCCCN)n3cc(C[C@@H](C)CC)nn3)CC2)n1 | 17.1 µM |
| CC1=NN(c2ccccc2)C(=O)/C1=C/c1c(O)n(-c2ccc(F)c(Cl)c2)[nH]c1=O | 24.3 µM |
| Cc1ccc(Nc2nc3ccccc3s2)c(C)c1 | 11.1 µM |
| Cc1csc2nc(O)c(C(=O)NC3CCCCC3)c(=O)n12 | 8.51 µM |
| Cc1ccc(OCc2cc(C(=O)NC3CCCCC3)no2)cn1 | 15.4 µM |
| Cc1ccc(NC(=O)c2nc(S(=O)(=O)Cc3ccccc3C)ncc2Cl)cc1C | 3.72 µM |
| CCN(CC)c1ccc(C(=O)N/N=C/c2ccccc2OC(F)F)cc1 | 15.1 µM |
| CC(C)(C)N1C(=O)c2ccc(C(=O)Nc3nccs3)cc2C1=O | 20.3 µM |
| NS(=O)(=O)c1ccc(N=Cc2c(O)n(C3CCCCC3)c(=O)n(C3CCCCC3)c2=O)cc1 | 14.4 µM |
| CC1CCN(c2nnc(N3CCC(C)CC3)c3ccccc23)CC1 | 34.9 µM |
| COc1cc(/C=C/[N+](=O)[O-])ccc1OC(=O)c1cc2ccccc2oc1=O | 4.02 µM |
| Cc1ccc2oc(C(Cl)(Cl)Cl)cc(=O)c2c1 | 4.38 µM |
| Nc1c(C(=O)Nc2ccc3c(c2)OCCO3)nnn1Cc1ccccc1Cl | 12.4 µM |
| CCc1cccc2c(C(=O)CCl)c[nH]c12 | 9.27 µM |
| Nc1ccc2nc(SCc3cccc(F)c3)sc2c1 | 13.9 µM |
| Cn1c(/C(C#N)=C/c2ccncc2)nc2ccccc21 | 16.3 µM |
| CC1(C)CC(=O)C=C(c2cccc(Cl)c2O)C1 | 8.1 µM |
| O=c1c2ccccc2nc2c3ccccc3cnn12 | 15 µM |
| O=C(Nc1ccc2oc(-c3ccccc3)nc2c1)c1cccs1 | 0.39 µM |
